Measurements reported in ChEMBL document CHEMBL1128768, “Structure-activity relationships of tricyclic quinoxalinediones as potent antagonists for the glycine binding site of the NMDA receptor 1” (Bioorg Med Chem Lett, 1995).

Molecular target: Glutamate receptor ionotropic, NMDA 1 (Rattus norvegicus, UniProt P35439)
Test: Affinity measured by using [3H]5,7-dichlorokynurenic acid (DCKA) for the glycine binding site of NMDA receptor

Row | SMILES | Ki [nM]
1 | O=C(O)C[C@@H]1CCc2cc(Br)cc3[nH]c(=O)c(=O)n1c23 | 9.9
2 | C[C@@H]1Cc2cc(Br)cc3[nH]c(=O)c(=O)n(c23)[C@@H]1CC(=O)O | 29.6
3 | CC(C(=O)Nc1ccccc1)[C@@H]1CCc2cc(Br)cc3[nH]c(=O)c(=O)n1c23 (stereo in doubt; 23b) | 665
4 | CC[C@H]1Cc2cc(Br)cc3[nH]c(=O)c(=O)n(c23)[C@@H]1CC(=O)Nc1ccccc1 | 3.8
5 | C[C@H]1C[C@@H](CC(=O)O)n2c(=O)c(=O)[nH]c3cc(Br)cc1c32 | 42
6 | C[C@@H]1C[C@@H](CC(=O)Nc2ccccc2)n2c(=O)c(=O)[nH]c3cc(Br)cc1c32 | 7.4
7 | C[C@H]1Cc2cc(Br)cc3[nH]c(=O)c(=O)n(c23)[C@@H]1CC(=O)O | 3.3
8 | CC(C(=O)O)[C@@H]1CCc2cc(Br)cc3[nH]c(=O)c(=O)n1c23 (stereo in doubt; 23a) | 241
9 | CC(C(=O)Nc1ccccc1)[C@@H]1CCc2cc(Br)cc3[nH]c(=O)c(=O)n1c23 (stereo in doubt; 24b) | 590
10 | C[C@@H]1C[C@@H](CC(=O)O)n2c(=O)c(=O)[nH]c3cc(Br)cc1c32 | 38.3
11 | CC(C)[C@H]1Cc2cc(Br)cc3[nH]c(=O)c(=O)n(c23)[C@@H]1CC(=O)O | 8.4
12 | C[C@H]1Cc2cc(Br)cc3[nH]c(=O)c(=O)n(c23)[C@@H]1CC(=O)Nc1ccccc1 | 3
13 | C[C@H]1C[C@@H](CC(=O)Nc2ccccc2)n2c(=O)c(=O)[nH]c3cc(Br)cc1c32 | 17.1
14 | O=C(C[C@@H]1CCc2cc(Br)cc3[nH]c(=O)c(=O)n1c23)Nc1ccccc1 | 2.6
15 | C[C@@H]1Cc2cc(Br)cc3[nH]c(=O)c(=O)n(c23)[C@@H]1CC(=O)Nc1ccccc1 | 21
16 | CC(C(=O)O)[C@@H]1CCc2cc(Br)cc3[nH]c(=O)c(=O)n1c23 (stereo in doubt; 24a) | 300
17 | C[C@@]1(CC(=O)Nc2ccccc2)CCc2cc(Br)cc3[nH]c(=O)c(=O)n1c23 | 760
18 | C[C@@]1(CC(=O)O)CCc2cc(Br)cc3[nH]c(=O)c(=O)n1c23 | 451
19 | CC[C@H]1Cc2cc(Br)cc3[nH]c(=O)c(=O)n(c23)[C@@H]1CC(=O)O | 1.4
